Data: ChEMBL document CHEMBL1681728, “An automated, polymer-assisted strategy for the preparation of urea and thiourea derivatives of 15-membered azalides as potential antimalarial chemotherapeutics” (Bioorg Med Chem, 2011)

Tests used:
Type in all cases: functional, organism-based
Plasmodium falciparum [1] = assay: Antimalarial activity against multidrug-resistant Plasmodium falciparum TM91C235 assessed as inhibition of [3H]hypoxanthine incorporation after 96 hrs by microtiter plate scintillation counting
Plasmodium falciparum [2] = assay: Antimalarial activity against chloroquine-sensitive Plasmodium falciparum D6 assessed as inhibition of [3H]hypoxanthine incorporation after 96 hrs by microtiter plate scintillation counting
Plasmodium falciparum [3] = assay: Antimalarial activity against chloroquine-,pyrimethamine-resistant Plasmodium falciparum W2 assessed as inhibition of [3H]hypoxanthine incorporation after 96 hrs by microtiter plate scintillation counting

Compound	IC50 (Plasmodium falciparum [1]) [nM]	IC50 (Plasmodium falciparum [2]) [nM]	IC50 (Plasmodium falciparum [3]) [nM]
CC[C@H]1OC(=O)[C@H](C)[C@@H](O[C@H]2C[C@@](C)(OC)[C@@H](O)[C@H](C)O2)[C@H](C)[C@@H](O[C@@H]2O[C@H](C)C[C@H](N(C)C)[C@H]2O)[C@](C)(O)C[C@@H](C)CN(CCCNC(=O)Nc2ccc(C(F)(F)F)cc2)[C@H](C)[C@@H](O)[C@]1(C)O	84.2	160	74.6
CC[C@H]1OC(=O)[C@H](C)[C@@H](O[C@H]2C[C@@](C)(OC)[C@@H](O)[C@H](C)O2)[C@H](C)[C@@H](O[C@@H]2O[C@H](C)C[C@H](N(C)C)[C@H]2O)[C@](C)(O)C[C@@H](C)CN(CCCNC(=S)NC(=O)c2ccccc2)[C@H](C)[C@@H](O)[C@]1(C)O	288	298	107
CC[C@H]1OC(=O)[C@H](C)[C@@H](O[C@H]2C[C@@](C)(OC)[C@@H](O)[C@H](C)O2)[C@H](C)[C@@H](O[C@@H]2O[C@H](C)C[C@H](N(C)C)[C@H]2O)[C@](C)(O)C[C@@H](C)CN(CCCNC(=O)Nc2ccc(Cl)cc2)[C@H](C)[C@@H](O)[C@]1(C)O	90.4	188	99.3
CC[C@H]1OC(=O)[C@H](C)[C@@H](O[C@H]2C[C@@](C)(OC)[C@@H](O)[C@H](C)O2)[C@H](C)[C@@H](O[C@@H]2O[C@H](C)C[C@H](N(C)C)[C@H]2O)[C@](C)(O)C[C@@H](C)CN(CCCNC(=O)NC2CCCCC2)[C@H](C)[C@@H](O)[C@]1(C)O	411	1960	185
CC[C@H]1OC(=O)[C@H](C)[C@@H](O[C@H]2C[C@@](C)(OC)[C@@H](O)[C@H](C)O2)[C@H](C)[C@@H](O[C@@H]2O[C@H](C)C[C@H](N(C)C)[C@H]2O)[C@](C)(O)C[C@@H](C)CN(CCCNC(=S)N[C@H]2CCCC[C@H]2OCc2ccccc2)[C@H](C)[C@@H](O)[C@]1(C)O	126	645	274
CC[C@H]1OC(=O)[C@H](C)[C@@H](O[C@H]2C[C@@](C)(OC)[C@@H](O)[C@H](C)O2)[C@H](C)[C@@H](O[C@@H]2O[C@H](C)C[C@H](N(C)C)[C@H]2O)[C@](C)(O)C[C@@H](C)CN(CCCNC(=S)Nc2ccc(N(CC)CC)cc2)[C@H](C)[C@@H](O)[C@]1(C)O	298	765	684
CCNC(=O)NCCCN1C[C@H](C)C[C@@](C)(O)[C@H](O[C@@H]2O[C@H](C)C[C@H](N(C)C)[C@H]2O)[C@@H](C)[C@H](O[C@H]2C[C@@](C)(OC)[C@@H](O)[C@H](C)O2)[C@@H](C)C(=O)O[C@H](CC)[C@@](C)(O)[C@H](O)[C@H]1C	1980	13700	13700
CC[C@H]1OC(=O)[C@H](C)[C@@H](O[C@H]2C[C@@](C)(OC)[C@@H](O)[C@H](C)O2)[C@H](C)[C@@H](O[C@@H]2O[C@H](C)C[C@H](N(C)C)[C@H]2O)[C@](C)(O)C[C@@H](C)CN(CCCNC(=S)Nc2ccc([N+](=O)[O-])cc2)[C@H](C)[C@@H](O)[C@]1(C)O	51.3	103	37.1
CC[C@H]1OC(=O)[C@H](C)[C@@H](O[C@H]2C[C@@](C)(OC)[C@@H](O)[C@H](C)O2)[C@H](C)[C@@H](O[C@@H]2O[C@H](C)C[C@H](N(C)C)[C@H]2O)[C@](C)(O)C[C@@H](C)CN(CCCNC(=S)NC(c2ccccc2)(c2ccccc2)c2ccccc2)[C@H](C)[C@@H](O)[C@]1(C)O	31.9	125	37
CC[C@H]1OC(=O)[C@H](C)[C@@H](O[C@H]2C[C@@](C)(OC)[C@@H](O)[C@H](C)O2)[C@H](C)[C@@H](O[C@@H]2O[C@H](C)C[C@H](N(C)C)[C@H]2O)[C@](C)(O)C[C@@H](C)CN(CCCNC(=S)Nc2ccc(Br)cc2)[C@H](C)[C@@H](O)[C@]1(C)O	173	261	169
